Test results from PMC8347595, “N-Skatyltryptamines—Dual 5-HT6R/D2R Ligands with Antipsychotic and Procognitive Potential” (Molecules, 2021).
Read-outs that look alike come from different tables or passages of the source.

What was measured:
[1] = system: Male CD1 mice; test: MK-801-induced hyperactivity in mice; format: in vivo; conditions: i.p.; for reversal of MK-801-elevated activity: MK-801 0.35 mg/kg, 15: 0.5, 1, 3 mg/kg, 18: 0.05-3 mg/kg
Description: (§1) Animals. Male CD1 mice (Charles River, Germany) weighing 20–25 g at the time of arrival were used in behavioral experiments. Animals were kept under standard laboratory conditions (12:12 light: dark cycle, 22 ± 2 °C) with free access to food and water. Animal welfare has been regularly controlled by a veterinarian and animal welfare committee. After two weeks of acclimatization and handling, the experiments began. Experimental groups consisted of four to 10 animals, depending on the procedure. Drugs were administered intraperitoneally (i.p.) at a volume of 10 mL/kg. Experimental assessments were performed by an observer who was blinded to the treatment conditions. All procedures were conducted in accordance with the European Communities Council Directive of 22 September 2010 (2010/63/EU) and Polish legislation acts concerning animal experimentation and were approved by the II Local Ethics Committee by the Maj Institute of Pharmacology, Polish Academy of Sciences in Krakow (272/2019).
(§2) Drugs. MK-801 was purchased from Tocris Bioscience, Bristol, UK. MK-801 was dissolved in 0.9% NaCl. Compounds 15 and 18 were dissolved in 0.9% NaCl. All compounds were administered intraperitoneally (i.p.) in a volume of 10 mL/kg. Vehicle-treated animals received appropriate solvents. Vehicle was administered to animals in any case when drug administration was omitted (e.g., control or MK-801-treated groups).
The locomotor activity was recorded individually for each animal in locomotor activity cages (according to Rorick-Kehn et al., 2007a,b), with modifications (Wieronska et al., 2012). The mice were placed individually into activity cages (13 × 23 × 15 cm; Opto-M3; Columbus Instruments) for an acclimatization period of 30 min; then they were injected i.p. with compound 15 (0.5, 1, 3 mg/kg) or compound 18 (0.05, 0.1, 0.5, 1, 3 mg/kg) and placed again in the same cages. After 30 min, all of the mice were injected i.p. with MK-801 at 0.35 mg/kg and once again placed in the same cage. From then on, the ambulation scores were counted for 60 min. All of the groups were compared with the MK-801 control group. […]

[2] = system: Male CD1 mice; test: Novel object recognition (NOR) test, MK-801-induced memory impairment; format: in vivo; conditions: i.p., MK-801 0.3 mg/kg
Description: as §1, §2
This procedure was adapted from Nilsson et al. (2007) and performed as described in a previous paper by Cieslik et al. (2018). Habituation, training, and test trials were performed in a black plastic rectangular arena (40 × 30 × 35 cm) illuminated with a light intensity of 335 lux. During the habituation trial (two consecutive days), each animal was allowed to explore the arena for 10 min. The next day, during the training trial (T1), mice were placed in the arena and presented with two identical objects (red glass cylinder; 6.5 cm in diameter and 4.5 cm high) for 5 min. After 1 h, animals were placed back into the arena for a 5 min test trial, during which one of the previously presented familiar objects was replaced with a novel object (a transparent glass elongated sphere-like object with an orange cap; 5.5 cm in diameter and 8.5 cm high). Time spent exploring (i.e., sniffing or touching) the familiar (Tfamiliar) and novel (Tnovel) objects was measured by a trained observer, and the recognition index [%] was calculated for each mouse [(Tnovel − Tfamiliar)/(Tfamiliar + Tnovel)] × 100. Compounds were administered 30 min before MK-801 (0.3 mg/kg), which was administered 30 min before training trial.

[3] = in vitro; conditions: PAMPA, pH 7.4
[4] = molecular target: D2R (Homo sapiens, UniProt P14416); test: D2R functional assay, antagonist mode (cAMP, HEK293 cells); format: cell-based; set-up: expressed in transfected cells
Description: The supernatant was aspirated, and the cell pellet was resuspended in stimulation buffer (1 × HBSS, 5 mM HEPES, 0.5 mM IBMX, 0.1% BSA).
The functional properties of compounds were evaluated using the LANCE Ultra cAMP Detection Kit (PerkinElmer). D2 receptors in HEK293 cells are coupled to Gi subtype and decreased cAMP production. […] Each compound was tested in triplicate at eight concentrations (10^−11–10^−4 M).
For quantification of cAMP levels, cells (5 µL) were incubated with 5 µL mixture of compounds (tested ligand and forskolin with 100 nM quinpirole for antagonist binding mode) for 30 min at room temperature in 384-well white opaque microtiter plate (PerkinElmer). After incubation, the reaction was stopped and cells were lysed by the addition of 10 µL working solution (5 µL Eu-cAMP and 5 µL ULight-anti-cAMP). The assay plate was incubated for 1 h at room temperature. Time-resolved fluorescence resonance energy transfer (TR-FRET) signal was detected by an Infinite M1000 Pro (Tecan) using instrument settings from the LANCE Ultra cAMP Detection Kit manual.

[5] = molecular target: 5-HT6R (Homo sapiens, UniProt P50406); test: Radioligand binding assay, [3H]-LSD displacement
[6] = molecular target: T1, Human Serotonin 5-HT6R (Homo sapiens, UniProt P50406); test: 5-HT6R functional assay, agonistic mode (cAMP, 1321N1 cells); format: cell-based
T1 construct: host or cells: 1321N1 (frozen recombinant cells)
Description: The properties of compounds to inhibit cAMP production induced by a 5-HT6R agonist 5-CT (1000 nM) was evaluated. Compounds were tested in triplicate at eight concentrations (10^−11–10^−4 M). The level of cAMP was measured using frozen recombinant 1321N1 cells expressing the Human Serotonin 5-HT6R (PerkinElmer). Total cAMP was measured using the LANCE cAMP Detection Kit (PerkinElmer), according to the manufacturer’s instructions. For quantification of cAMP levels, 2000 cells/well ([…]) were incubated with a mixture of compounds ([…]) for 30 min at room temperature in a 384-well white opaque microtiter plate. After incubation, the reaction was stopped and cells were lysed by the addition of […] of working solution ([…] ULight-anti-cAMP) for 1 h at room temperature. Time-resolved fluorescence resonance energy transfer (TR-FRET) was detected by an Infinite M1000 Pro (Tecan) using instrument settings from the LANCE cAMP Detection Kit manual. […] The agonistic properties of compounds were determined with an analogous procedure, but without stimulation with 5-CT [10, 36].

[7] = PAMPA permeability assay

Chain of 5-HT6R (P50406 whole entry): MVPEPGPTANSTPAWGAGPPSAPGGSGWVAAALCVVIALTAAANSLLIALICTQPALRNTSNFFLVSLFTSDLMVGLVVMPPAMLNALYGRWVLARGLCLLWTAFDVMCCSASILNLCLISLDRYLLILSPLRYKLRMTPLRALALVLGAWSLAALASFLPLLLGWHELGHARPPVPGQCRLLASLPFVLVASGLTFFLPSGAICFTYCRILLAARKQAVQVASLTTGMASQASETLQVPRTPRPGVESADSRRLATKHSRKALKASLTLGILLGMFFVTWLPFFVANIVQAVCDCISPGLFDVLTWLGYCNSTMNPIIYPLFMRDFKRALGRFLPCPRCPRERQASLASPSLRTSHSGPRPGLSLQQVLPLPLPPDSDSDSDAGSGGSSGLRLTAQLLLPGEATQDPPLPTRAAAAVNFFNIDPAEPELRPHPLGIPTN
Chain of D2R (P14416 whole entry): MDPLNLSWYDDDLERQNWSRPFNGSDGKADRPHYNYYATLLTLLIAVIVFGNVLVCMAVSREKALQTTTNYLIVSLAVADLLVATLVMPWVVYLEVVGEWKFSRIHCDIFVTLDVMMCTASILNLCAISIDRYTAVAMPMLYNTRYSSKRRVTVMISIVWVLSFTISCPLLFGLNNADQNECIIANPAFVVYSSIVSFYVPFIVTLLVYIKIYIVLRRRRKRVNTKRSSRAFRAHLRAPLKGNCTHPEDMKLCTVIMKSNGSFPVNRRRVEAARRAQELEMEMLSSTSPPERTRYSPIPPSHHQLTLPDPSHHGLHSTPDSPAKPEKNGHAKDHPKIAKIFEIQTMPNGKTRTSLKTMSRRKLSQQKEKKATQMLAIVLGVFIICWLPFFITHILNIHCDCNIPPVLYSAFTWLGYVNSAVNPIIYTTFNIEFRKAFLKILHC
T1 sequence (P50406 whole entry): as the sequence (P50406 whole entry) above

Structure (SMILES)	exacerbation of MK-801 hyperactivity ([1]; 3 mg/kg)	reversal of MK-801-elevated activity [1]	reversal of memory impairment induced by MK-801 in NOR test ([2]; 0.5 mg/kg)	reversal of memory impairment induced by MK-801 in NOR test ([2]; 1 mg/kg)	PAMPA Pe ± SD (5 h, 200 µM, pH 7.4)	permeability in words (PAMPA)	Papp at 5 h, 200 µM [3]	Kb ([4]; antagonistic mode, 100 nM quinpirole, read-out: D2 Kb)	EC50 ([4]; read-out: EC50 (D2 receptor, antagonistic function))	Ki ([5]; Ki 5-HT6, Figure 8)	Ki ([5]; pKi 5-HT6, Table 1)	5-HT6R function in words (agonism) [6]	EC50 [6]	reversal of memory impairment induced by MK-801 in NOR test ([2]; 0.1 mg/kg)	PAMPA Pe ± SD ([7]; 200 µM, PBS pH 7.4, 5 h, triplicate)	Papp at 5 h, 200 µM ([7]; PAMPA, pH 7.4)	permeability in words ([7]; compared to caffeine and norfloxacin)	Kb [4]
Brc1ccc2c(CNCCc3c[nH]c4ccccc34)c[nH]c2c1 [Compound 15]	not statistically significant	did not reverse the locomotor activity elevated by the administration of MK-801	reversed memory impairment	reversed memory impairment	2.42 10^−6 cm/s	rather low Pe value but still higher than norfloxacin	2.42 ± 0.92 ×10⁻⁶ cm/s	0.109 µM	0.109 µM	0.102 µM	0.102 µM							
Brc1cccc2c(CNCCc3c[nH]c4ccccc34)c[nH]c12 [Compound 18]		did not reverse the locomotor activity elevated by the administration of MK-801	reversed memory impairment	reversed memory impairment						0.449 µM	0.447 µM	agonist	0.077 µM	reversed memory impairment	3.90 10^−6 cm/s	3.9 ± 0.56 ×10⁻⁶ cm/s	rather low Pe value but still higher than norfloxacin	0.167 µM
